Laboratory results: patent US10683293B2, “Optionally fused heterocyclyl-substituted derivatives of pyrimidine useful for the treatment of inflammatory, metabolic, oncologic and autoimmune diseases” (NUEVOLUTION A/S, priority 2014, dated 2020)

Tests used:
[1] = target: T1, human RORγt (Ligand Binding Domain) (Homo sapiens, UniProt P51449); assay: Fluorescence Polarization (FP) Assay; settings: 100 nM human RORγt LBD, 25 nM TAMRA probe, values are activity range bounds
T1 construct: purchased Crelux (Planegg, Germany) batch no PC5032-1
T1 sequence (P51449 269-508 limits assumed): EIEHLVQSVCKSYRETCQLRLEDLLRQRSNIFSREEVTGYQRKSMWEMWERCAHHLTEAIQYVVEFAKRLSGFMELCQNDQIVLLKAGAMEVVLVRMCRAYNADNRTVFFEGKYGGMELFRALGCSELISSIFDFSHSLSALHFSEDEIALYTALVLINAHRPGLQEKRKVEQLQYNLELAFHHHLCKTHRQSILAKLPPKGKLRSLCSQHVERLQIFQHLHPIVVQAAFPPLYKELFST
How it was run: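 In vitro fluorescence polarization binding assay on the RORγt ligand-binding pocket. A TAMRA-labelled RORγt ligand probe (MW 910 g/mol) was used, with DMSO as negative control.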

[2] = target: T2, ligand binding domain of human RORγ (Homo sapiens, UniProt P51449); assay: RORγ Reporter Assay (Gal4); format: cell-based; settings: for inhibition at 1 µM: HEK-293T, 1 μM test compound, HEK293t RORγ reporter cells, 24 hour, read-out: Gal4 activity range @ 1 μM (% inhibition); for Gal4 activity range @ 0.1 μM (% inhibition): RORγ Reporter Assay (Gal4), HEK293t reporter cells, compound at 0.1 μM, values are activity range bounds
T2 construct: host or cells: HEK293t
T2 sequence (P51449 269-508 limits assumed): T1 sequence (P51449 269-508 limits assumed)
How it was run: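 HEK293t cells expressing Gal4 DBD–human RORγ LBD hybrid with Gal4-UAS firefly luciferase reporter; compounds at final 1,000 nM and 100 nM (0.1% DMSO), triplicate, medium with 10% charcoal-stripped FBS, 24 h at 37 °C. Luminescence read; percent reduction of RORγ activity calculated versus vehicle-only wells.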

SMILES | IC50 [1] | inhibition at 1 µM [2] | Gal4 activity range @ 0.1 μM (% inhibition) [2]
CC(C)n1nc(C2CC2)cc1CN(c1ncnc(NCc2ccc(CC(N)=O)cc2)c1F)C1CC1 [Example A90, 2-[4-[[[6-[cyclopropyl-[(5-cyclopropyl-2-isopropyl-pyrazol-3-yl)methyl]amino]-5-fluoro-pyrimidin-4-yl]amino]methyl]phenyl]acetamide] | < 500 nM | > 0% | 
CN(Cc1cccc(-n2cccn2)c1)c1ncnc(NCC2CCN(S(C)(=O)=O)CC2)c1F [Example A143, 5-fluoro-N6-methyl-N4-[(1-methylsulfonyl-4-piperidyl)methyl]-N6-[(3-pyrazol-1-ylphenyl)methyl]pyrimidine-4,6-diamine] | < 500 nM | > 80% | >20 % inhibition
OCC1(Cn2ccc3c(N(Cc4ccc(C(F)(F)F)cc4)C4CC4)ncnc32)COC1 [Example A56, [3-[[4-[cyclopropyl-[[4-(trifluoromethyl)phenyl]methyl]amino]pyrrolo[2,3-d]pyrimidin-7-yl]methyl]oxetan-3-yl]methanol] | < 500 nM | > 80% | >80 % inhibition
CC(c1ccc(C(F)(F)F)nc1)N(c1ncnc(NCc2ccc(CC(N)=O)cc2)c1F)C1CC1 (centres unmarked) [Example A103, 2-[4-[[[6-[cyclopropyl-[1-[6-(trifluoromethyl)-3-pyridyl]ethyl]amino]-5-fluoro-pyrimidin-4-yl]amino]methyl]phenyl]acetamide] | < 1000 nM | > 80% | >0 % inhibition
CS(=O)(=O)N1CCC2(CC2Nc2ncnc(N(Cc3ccc(C(F)(F)F)cc3)C3CC3)c2F)C1 (centres unmarked) [Example A172, N6-cyclopropyl-5-fluoro-N4-(6-methylsulfonyl-6-azaspiro[2.4]heptan-2-yl)-N6-[[4-(trifluoromethyl)phenyl]methyl] pyrimidine-4,6-diamine] | < 2000 nM | > 80% | >20 % inhibition
CC1(c2ccc(CNc3ncnc(N(Cc4ccc(C(F)(F)F)cc4)C4CC4)c3F)cc2)NC(=O)NC1=O (centres unmarked) [Example A82, 5-[4-[[[6-[cyclopropyl-[[4-(trifluoromethyl)phenyl]methyl]amino]-5-fluoro-pyrimidin-4-yl]amino]methyl]phenyl]-5-methyl-imidazolidine-2,4-dione] | < 1000 nM | > 80% | >20 % inhibition
CN(Cc1ccc(C(F)(F)F)cc1)c1ncnc(NCc2ccc(CC(N)=O)cc2)c1F [Example A19, 2-[4-[[[5-fluoro-6-[methyl-[[4-(trifluoromethyl)phenyl]methyl]amino]pyrimidin-4-yl]amino]methyl]phenyl]acetamide] | < 500 nM | > 80% | >20 % inhibition
O=S(=O)(NC1CC1)c1ccc(CNc2ncnc(N(Cc3ccc(C(F)(F)F)cc3)C3CC3)c2F)cc1 [Example A9, N-cyclopropyl-4-[[[6-[cyclopropyl-[[4-(trifluoromethyl)phenyl]methyl]amino]-5-fluoro-pyrimidin-4-yl]amino]methyl]benzenesulfonamide] | < 500 nM | > 80% | >20 % inhibition
CN(Cc1cccc(-n2cccn2)c1)c1ncnc(NC[C@H]2CC[C@H](NS(=O)(=O)C(F)(F)F)CC2)c1F [Example A142, 1,1,1-trifluoro-N-[4-[[[5-fluoro-6-[methyl-[(3-pyrazol-1-ylphenyl)methyl]amino]pyrimidin-4-yl]amino]methyl]cyclohexyl] methanesulfonamide] | < 500 nM | > 50% | >0 % inhibition
CC(c1ccc(C(F)(F)F)cc1)N(c1ncnc(NCc2ccc(NS(=O)(=O)C(F)(F)F)cc2)c1F)C1CC1 (centres unmarked) [Example A74, N-[4-[[[6-[cyclopropyl-[1-[4-(trifluoromethyl)phenyl]ethyl]amino]-5-fluoro-pyrimidin-4-yl]amino]methyl]phenyl]-1,1,1-trifluoro-methanesulfonamide] | < 500 nM | > 50% | >0 % inhibition
CS(=O)(=O)Nc1ncc(CNc2ncnc(N(Cc3ccc(C(F)(F)F)cc3)C3CC3)c2F)cc1F [Example A109, N-[5-[[[6-[cyclopropyl-[[4-(trifluoromethyl)phenyl]methyl]amino]-5-fluoro-pyrimidin-4-yl]amino]methyl]-3-fluoro-2-pyridyl]methanesulfonamide] | < 500 nM | > 80% | >0 % inhibition
CC(=O)N1CCC(CNc2ncnc(N(Cc3ccc(C(F)(F)F)cc3)C3CC3)c2F)CC1 [Example A11, 1-[4-[[[6-[cyclopropyl-[[4-(trifluoromethyl)phenyl]methyl]amino]-5-fluoro-pyrimidin-4-yl]amino]methyl]-1-piperidyl]ethanone] | < 500 nM | > 80% | >50 % inhibition
NC(=O)Cc1ccc(CNc2ncnc(N(Cc3ccc(C(F)(F)F)cc3)C3CC3)c2F)cc1 [Example A2, 2-[4-[[[6-[cyclopropyl-[[4-(trifluoromethyl)phenyl]methyl]amino]-5-fluoro-pyrimidin-4-yl]amino]methyl]phenyl]acetamide] | < 500 nM | > 80% | >80 % inhibition
Cc1nc(C)c(C(C)N(C)c2ncnc(NCc3ccc(CC(N)=O)cc3)c2F)s1 (centres unmarked) [Example A125, 2-[4-[[[6-[1-(2,4-dimethylthiazol-5-yl)ethyl-methyl-amino]-5-fluoro-pyrimidin-4-yl]amino]methyl]phenyl]acetamide] | < 500 nM | > 50% | >0 % inhibition
NC(=O)Cc1ccc(CNc2ncnc(N(Cc3ccc(OC(F)(F)F)cc3)C3CC3)c2F)cc1 [Example A6, 2-[4-[[[6-[cyclopropyl-[[4-(trifluoromethoxy)phenyl]methyl]amino]-5-fluoro-pyrimidin-4-yl]amino]methyl]phenyl]acetamide] | < 500 nM | > 80% | >80 % inhibition
NC(=O)Cc1ccc(CNc2ncnc(N(Cc3cccc(C(F)(F)F)n3)C3CC3)c2F)cc1 [Example A176, 2-[4-[[[6-[cyclopropyl-[[6-(trifluoromethyl)-2-pyridyl]methyl]amino]-5-fluoro-pyrimidin-4-yl]amino]methyl]phenyl]acetamide] | < 500 nM | > 50% | >0 % inhibition
CS(=O)(=O)c1ccc(CNc2ncnc(N(Cc3ccc(C(F)(F)F)nc3)C3CC3)c2F)cn1 [Example A110, N4-cyclopropyl-5-fluoro-N6-[(6-methylsulfonyl-3-pyridyl)methyl]-N4-[[6-(trifluoromethyl)-3-pyridyl]methyl]pyrimidine-4,6-diamine] | < 2000 nM | > 50% | >0 % inhibition
Cc1cccc(Cl)c1CN(c1ncnc(NCc2ccc(CC(N)=O)cc2)c1F)C1CC1 [Example A67, 2-[4-[[[6-[(2-chloro-6-methyl-phenyl)methyl-cyclopropyl-amino]-5-fluoro-pyrimidin-4-yl]amino]methyl]phenyl]acetamide] | < 500 nM | > 50% | >20 % inhibition
NC(=O)Cc1ccc(CNc2cc(N(Cc3ccc(C(F)(F)F)cc3)C3CC3)ncn2)cc1 [Example A107, 2-[4-[[[6-[cyclopropyl-[[4-(trifluoromethyl)phenyl]methyl]amino]pyrimidin-4-yl]amino]methyl]phenyl]acetamide] | < 1000 nM | > 50% | >0 % inhibition
CS(=O)(=O)N1CC2CC2(CNc2ncnc(N(Cc3ccc(C(F)(F)F)cc3)C3CC3)c2F)C1 (centres unmarked) [Example A174, N6-cyclopropyl-5-fluoro-N4-[(3-methylsulfonyl-3-azabicyclo[3.1.0]hexan-5-yl)methyl]-N6-[[4-(trifluoromethyl)phenyl]methyl] pyrimidine-4,6-diamine] | < 500 nM | > 80% | >20 % inhibition
NC(=O)Cc1ccc(CNc2ncnc(N(Cc3ccc(C(F)(F)F)cc3)C3CCOC3)c2F)cc1 (centres unmarked) [Example A4, 2-[4-[[[5-fluoro-6-[tetrahydrofuran-3-yl-[[4-(trifluoromethyl)phenyl]methyl]amino]pyrimidin-4-yl]amino]methyl]phenyl]acetamide] | < 2000 nM | > 50% | >0 % inhibition
NC(=O)Cc1ccc(CNc2ncnc(N(Cc3ccc(C(F)(F)F)cc3)C3CCC3)c2F)cc1 [Example A15, 2-[4-[[[6-[cyclobutyl-[[4-(trifluoromethyl)phenyl]methyl]amino]-5-fluoro-pyrimidin-4-yl]amino]methyl]phenyl]acetamide] | < 500 nM | > 80% | >20 % inhibition
